According to patent US20200291096A1, “BICYCLIC PEPTIDE LIGAND STING CONJUGATES AND USES THEREOF” (priority 2017, published 2020):
Starred links: 1 amine or outer side, 2 acyl side, 3 side chain; linkers in the order of their positions; H or OH if unused. Positions of bridges follow the written chain, without caps; N, C: chain ends. Non-standard residues stand in square brackets, D forms with d. Residues, ends and D or L forms follow the SMILES beside them. 1Nal = N[C@@H](Cc1cccc2ccccc12)C(=O)O; TBMB = c1c(C[*:1])cc(C[*:3])cc1C[*:2]; Tle = CC(C)(C)[C@H](N)C(=O)O; βAla = NCCC(=O)O; Sar = CNCC(=O)O

Legend:
[1] = system: catalytic domain (MT1); experiment: Binding to catalytic domain of MT1
[2] = target: MT1 (Homo sapiens, UniProt P50281); experiment: Effect on catalytic activity of MT1 in vitro; assay type: biochemical
[3] = target: MMP9 (Homo sapiens, UniProt P14780); experiment: Effect on MMP9 catalytic activity; assay type: biochemical; settings: in vitro
Sequence of MMP9 (P14780 94-707, species assumed): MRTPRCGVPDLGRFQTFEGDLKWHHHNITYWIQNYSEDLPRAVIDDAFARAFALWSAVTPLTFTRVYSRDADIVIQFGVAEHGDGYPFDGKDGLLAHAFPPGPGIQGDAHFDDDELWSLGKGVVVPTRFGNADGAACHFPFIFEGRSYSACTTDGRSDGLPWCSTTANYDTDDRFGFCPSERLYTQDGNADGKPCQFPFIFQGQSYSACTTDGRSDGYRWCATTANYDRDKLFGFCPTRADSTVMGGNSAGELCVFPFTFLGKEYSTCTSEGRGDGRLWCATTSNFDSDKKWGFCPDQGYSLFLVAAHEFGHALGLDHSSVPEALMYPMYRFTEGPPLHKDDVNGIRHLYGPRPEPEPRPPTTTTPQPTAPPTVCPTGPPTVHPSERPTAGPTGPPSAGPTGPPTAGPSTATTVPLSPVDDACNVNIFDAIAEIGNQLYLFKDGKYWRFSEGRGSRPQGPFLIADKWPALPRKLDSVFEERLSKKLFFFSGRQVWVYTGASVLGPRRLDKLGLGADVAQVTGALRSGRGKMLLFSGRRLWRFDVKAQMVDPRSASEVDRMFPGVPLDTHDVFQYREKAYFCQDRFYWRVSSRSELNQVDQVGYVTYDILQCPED

[4] = target: T1, MMP2 (Homo sapiens, UniProt P08253); experiment: Binding to related MMP family member MMP2
T1 sequence (P08253 110-660): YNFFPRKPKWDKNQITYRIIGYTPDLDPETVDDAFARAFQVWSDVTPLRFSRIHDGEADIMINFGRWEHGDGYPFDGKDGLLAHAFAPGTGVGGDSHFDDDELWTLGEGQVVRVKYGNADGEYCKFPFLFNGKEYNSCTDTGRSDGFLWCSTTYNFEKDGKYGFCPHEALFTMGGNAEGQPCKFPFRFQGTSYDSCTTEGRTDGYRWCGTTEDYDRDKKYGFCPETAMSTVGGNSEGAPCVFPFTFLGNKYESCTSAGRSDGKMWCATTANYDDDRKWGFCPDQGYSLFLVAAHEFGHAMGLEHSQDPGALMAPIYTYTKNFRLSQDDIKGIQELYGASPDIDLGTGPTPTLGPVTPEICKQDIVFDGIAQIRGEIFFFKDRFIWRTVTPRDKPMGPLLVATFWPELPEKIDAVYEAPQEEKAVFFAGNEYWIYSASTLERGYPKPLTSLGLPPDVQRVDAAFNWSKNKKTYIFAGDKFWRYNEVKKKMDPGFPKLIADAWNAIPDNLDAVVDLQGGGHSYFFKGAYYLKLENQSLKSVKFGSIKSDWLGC

[5] = target: MMP16 (Homo sapiens, UniProt P51512); experiment: Binding to related MMP family member MMP16
Sequence of MMP16 (P51512 120-607, species assumed): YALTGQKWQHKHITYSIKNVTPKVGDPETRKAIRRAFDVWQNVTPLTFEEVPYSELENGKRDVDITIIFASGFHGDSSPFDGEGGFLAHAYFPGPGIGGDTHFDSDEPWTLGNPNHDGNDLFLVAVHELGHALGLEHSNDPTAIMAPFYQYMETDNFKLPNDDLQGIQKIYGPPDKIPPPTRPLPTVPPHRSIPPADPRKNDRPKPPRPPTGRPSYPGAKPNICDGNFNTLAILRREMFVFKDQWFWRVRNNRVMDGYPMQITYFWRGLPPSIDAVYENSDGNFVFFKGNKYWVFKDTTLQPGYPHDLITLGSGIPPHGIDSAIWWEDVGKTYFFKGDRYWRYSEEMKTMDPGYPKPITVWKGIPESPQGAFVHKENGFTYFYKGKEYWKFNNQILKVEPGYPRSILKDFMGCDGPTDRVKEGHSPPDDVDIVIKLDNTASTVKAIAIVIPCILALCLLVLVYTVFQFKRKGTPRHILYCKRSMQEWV

[6] = system: cell migration or invasion; experiment: Effect on cell migration or invasion; assay type: cell-based; settings: in vitro
[7] = target: T2, Pro-MMP1 (Homo sapiens, UniProt P03956); experiment: Binding to related MMP family member Pro-MMP1
T2 sequence (P03956 20-469 limits assumed): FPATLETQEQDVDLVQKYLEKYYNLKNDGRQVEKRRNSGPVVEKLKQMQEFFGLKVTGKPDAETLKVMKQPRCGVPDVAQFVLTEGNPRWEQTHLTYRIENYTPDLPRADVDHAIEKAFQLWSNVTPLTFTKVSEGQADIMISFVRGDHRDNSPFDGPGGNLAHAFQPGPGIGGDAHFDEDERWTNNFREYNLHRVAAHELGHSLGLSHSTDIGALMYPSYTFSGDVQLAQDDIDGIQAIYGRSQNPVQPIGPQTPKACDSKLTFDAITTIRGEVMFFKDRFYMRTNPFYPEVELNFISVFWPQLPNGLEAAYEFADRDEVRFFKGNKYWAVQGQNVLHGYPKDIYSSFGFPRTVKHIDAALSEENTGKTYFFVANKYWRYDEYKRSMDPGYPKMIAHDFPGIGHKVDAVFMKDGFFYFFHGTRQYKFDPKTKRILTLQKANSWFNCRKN

[8] = target: T3, MMP1 (Homo sapiens, UniProt P03956); experiment: Effect on MMP1 catalytic activity; assay type: biochemical; settings: in vitro
T3 sequence (P03956 100-469): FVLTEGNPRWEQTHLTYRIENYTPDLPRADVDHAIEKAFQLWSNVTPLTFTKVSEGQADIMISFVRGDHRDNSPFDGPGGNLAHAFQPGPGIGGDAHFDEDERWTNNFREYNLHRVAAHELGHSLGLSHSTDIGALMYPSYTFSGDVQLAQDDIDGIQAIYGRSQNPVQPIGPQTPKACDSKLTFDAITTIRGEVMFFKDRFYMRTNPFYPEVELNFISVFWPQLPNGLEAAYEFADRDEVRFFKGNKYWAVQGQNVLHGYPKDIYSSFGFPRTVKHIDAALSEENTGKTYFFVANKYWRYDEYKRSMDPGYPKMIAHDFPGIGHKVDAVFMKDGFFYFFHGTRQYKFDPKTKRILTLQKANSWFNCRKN

[9] = target: T1, MMP2; experiment: Effect on MMP2 catalytic activity; assay type: biochemical; settings: in vitro
[10] = target: T3, MMP1; experiment: Binding to related MMP family member MMP1
[11] = target: MMP24 (Homo sapiens, UniProt Q9Y5R2); experiment: Binding to related MMP family member MMP24
Sequence of MMP24 (Q9Y5R2 156-645, species assumed): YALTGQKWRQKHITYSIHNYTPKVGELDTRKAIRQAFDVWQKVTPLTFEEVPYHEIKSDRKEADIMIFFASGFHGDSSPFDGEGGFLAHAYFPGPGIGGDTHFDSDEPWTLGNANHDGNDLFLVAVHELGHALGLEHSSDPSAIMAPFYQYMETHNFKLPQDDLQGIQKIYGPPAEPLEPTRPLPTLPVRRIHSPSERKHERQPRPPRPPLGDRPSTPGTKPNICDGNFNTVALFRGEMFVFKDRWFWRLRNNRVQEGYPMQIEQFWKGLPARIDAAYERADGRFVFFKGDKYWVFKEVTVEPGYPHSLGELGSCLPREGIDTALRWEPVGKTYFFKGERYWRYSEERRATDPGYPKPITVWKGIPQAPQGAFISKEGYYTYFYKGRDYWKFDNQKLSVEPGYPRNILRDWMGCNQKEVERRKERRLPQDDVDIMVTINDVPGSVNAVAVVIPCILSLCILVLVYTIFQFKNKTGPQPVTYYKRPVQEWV

[12] = target: MMP15 (Homo sapiens, UniProt P51511); experiment: Binding to related MMP family member MMP15
Sequence of MMP15 (P51511 132-669, species assumed): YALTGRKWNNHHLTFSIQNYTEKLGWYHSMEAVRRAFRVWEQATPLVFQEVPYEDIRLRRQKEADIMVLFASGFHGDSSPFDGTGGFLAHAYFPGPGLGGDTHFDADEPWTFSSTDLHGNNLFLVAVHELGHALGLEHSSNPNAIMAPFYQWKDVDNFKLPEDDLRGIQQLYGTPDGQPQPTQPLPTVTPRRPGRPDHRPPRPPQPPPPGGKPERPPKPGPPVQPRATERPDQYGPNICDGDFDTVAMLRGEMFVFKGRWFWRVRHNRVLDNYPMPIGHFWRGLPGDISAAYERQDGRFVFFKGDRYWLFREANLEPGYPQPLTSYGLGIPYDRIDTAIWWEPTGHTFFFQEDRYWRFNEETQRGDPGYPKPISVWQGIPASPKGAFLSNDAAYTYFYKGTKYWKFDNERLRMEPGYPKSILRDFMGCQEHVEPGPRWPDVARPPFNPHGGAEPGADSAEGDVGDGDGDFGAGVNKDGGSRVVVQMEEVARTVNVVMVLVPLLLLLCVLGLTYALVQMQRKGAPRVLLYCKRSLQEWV

## C[C@H](NC(=O)CN(C)C(=O)CN(C)C(=O)CN(C)C(=O)CN(C)C(=O)CN(C)C(=O)CN(C)C(=O)CN(C)C(=O)CN(C)C(=O)CN(C)C(=O)CN(C)C(=O)CCN)C(=O)N[C@H]1CSCc2cc3cc(c2)CSC[C@H](NC(=O)[C@@H](C)NC(=O)[C@H](Cc2cccc4ccccc24)NC(=O)[C@H](CCC(=O)O)NC(=O)[C@H](CC(N)=O)NC(=O)[C@@H](C)NC1=O)C(=O)N[C@@H](CCC(=O)O)C(=O)N[C@@H](CC(=O)O)C(=O)N[C@@H](Cc1ccccc1)C(=O)N[C@@H](Cc1ccc(O)cc1)C(=O)N[C@@H](CC(=O)O)C(=O)N[C@@H](C(C)(C)C)C(=O)N[C@H](C(N)=O)CSC3 [N241] (H-[βAla][Sar][Sar][Sar][Sar][Sar][Sar][Sar][Sar][Sar][Sar]AC[dA]NE[1Nal][dA]CEDFYD[Tle]C-NH2; linker 13-19-26 via TBMB; N-terminus and C-terminus assumed)
[1]
  binding to the catalytic domain: no binding
[2]
  impact on the catalytic activity of the protease (MT1): no direct impact
[3]
  impact on MMP9 catalytic activity: no direct impact
[4]
  binding toward MMP2: no binding
[5]
  binding toward MMP16: no binding
[6]
  impact on cell migration or invasion: no direct impact
[7]
  binding toward Pro-MMP1: no binding
[8]
  impact on MMP1 catalytic activity: no direct impact
[9]
  impact on MMP2 catalytic activity: no direct impact
[10]
  binding toward MMP1: no binding
[11]
  binding toward MMP24: no binding
[12]
  binding toward MMP15: no binding
